The target in one test is SAT1 (Homo sapiens, UniProt P21673). The note with it: literature; cited from earlier work.
Test [1] concerns transgenic mice (Line 61) expressing wildtype human α-synuclein. Nature of the test: α-Synuclein transgenic mice, intraventricular infusion, immunohistochemical analysis of α-synuclein accumulation and neurodegeneration. It is filed as in vivo. The note with it: for overall α-synuclein pathology / PD phenotype / neuronal accumulation of α-synuclein in the basal ganglia (mean α-synuclein cell pixel intensity, caudo-putamen) / dendritic complexity in the basal ganglia as detected by MAP2 (% of neuropil covered by MAP2 immunoreactive dendrites) / tyrosine hydroxylase (TH) fibers (TH corrected optical density in the caudo-putamen): infusion via osmotic minipumps six weeks; for neuronal accumulation of α-synuclein in the basal ganglia (mean α-synuclein cell pixel intensity, caudo-putamen): DENSPM 62 μM, Berenil 30 μM; for neuronal accumulation of α-synuclein in the basal ganglia (mean α-synuclein cell pixel intensity, caudo-putamen) / mean α-synuclein cell pixel intensity in the substantia nigra: compared to transgenic mice treated with PBS; for dendritic complexity in the basal ganglia as detected by MAP2 (% of neuropil covered by MAP2 immunoreactive dendrites) / tyrosine hydroxylase (TH) fibers (TH corrected optical density in the caudo-putamen): compared to syntgPBS; for mean α-synuclein cell pixel intensity in the substantia nigra: infusion via osmotic pumps six weeks. The source says: α-Synuclein transgenic mice and infusion: For this study, heterozygous transgenic (tg) mice (Line 61) expressing wildtype human α-synuclein (hα-syn) under the regulatory control of the mThy1 promoter were used (Rockenstein, E. et al. 2002). These animals were selected because they display abnormal accumulation of detergent-insoluble hα-syn and develop hα-syn-immunoreactive inclusion like structures in the basal ganglia, cortex, and limbic system (Rockentein, E. et al. 2002). Furthermore, these animals also display neurodegenerative and motor deficits that mimic certain aspects of PD and Dementia with Lewy bodies (Fleming, S. et al. 2004). Infusions were performed as previously described (Veinbergs, I. et al. 2001). In order to evaluate the effects of the polyamine pathway, hα-syn tg mice (10-11 months old) received intraventricular infusions with a cannula implanted into the skull and connected to osmotic minipumps of either vehicle, Beneril, or DENSPM. A total of 15 hu-syn tg mice (n=5 per group) were used for these experiments. Mice were treated for six weeks; the compounds were dissolved in 0.9% NaCl at a concentration of 62 μM for DENSPM and 30 μM for Berenil at a pH of 7.2. Then, 200 μL of these solutions were filled into the osmotic minipump (Alzet) ensuring constant delivery ([…]). The minipump was implanted subcutaneously on the back under light anesthesia. An additional group of control non tg (n=5) mice were implanted with minipumps filled with vehicle only. All procedures were completed under the specifications set forth by the Institutional Animal Care and Use Committee.
Brains were removed and divided sagittally. One hemibrain was postfixed in phosphate-buffered 4% paraformaldehyde, pH 7.4, at 4° C. for 48 h and sectioned at 40 μm with a Vibratome 2000 (Leica) and placed in cryosolution, whereas the other hemibrain was snap frozen and stored at −70° C. for further analysis. Sections were first washed 3×5 minutes each in PBS. They were then pretreated with 1% Triton-X, 3% hydrogen peroxide in PBS for 15 minutes, washed again 3×5 min in PBS and blocked in 10% serum matching the animal the secondary antibody was raised in for 1 hour and then washed in PBS. Sections were then placed in primary antibody: mouse anti-TH, rabbit anti-(h) α-syn, mouse anti-MAP2 (Chemicon, (1:500)) overnight in 4° C. Sections were washed 3×5 min in PBS and then placed in biotynilated secondary antibody (1:100) (Vector Laboratories) for 2 hours. After washing again 3 times in PBS, sections were placed in 20% […] (DAB) (Vector Laboratories) for 20 seconds. The reaction with DAB was halted by immersing the sections in double distilled water. Sections were then mounted, dried and coverslipped with Entillin (Fisher Scientific). Sections for fluorescent immunohistochemistry were treated with mouse monoclonal anti-microtuble-associated protein 2 (MAP2, 1:50, Roche Molecular Biochemicals) primary antibody. This antibody was then detected with the fluorescein isothiocyanate (FITC)-conjugated anti-mouse secondary antibody (Vector Laboratories). Coverslips were air-dried overnight, mounted on slides with anti-fading media (Vectashield, Vector Laboratories), and imaged with the LSCM (MRC 1024, Bio-Rad). The immunolabeled blind-coded sections were imaged by LSCM (MRC1024, Bio-Rad) and analyzed with the Image 1.43 program (NIH), as previously described (Fleming, S. et al. 2004).

Test [2] relates to yeast expressing α-synuclein (wildtype and A53T). The note with it: YPGal medium, spermine 0, 0.2, 0.4 mM; Syn-WT and Syn-A53T versus empty vector strain.
The target of a further test is α-synuclein (Homo sapiens, UniProt P37840). The note with it: in vitro system, exogenously added (Antony 2003); cited from earlier work.

Each structure is given as a SMILES string. Entries after “also recorded” stand apart in the source; their conditions may differ.

Chain of SAT1 (P21673 whole entry, the tested form may be a part): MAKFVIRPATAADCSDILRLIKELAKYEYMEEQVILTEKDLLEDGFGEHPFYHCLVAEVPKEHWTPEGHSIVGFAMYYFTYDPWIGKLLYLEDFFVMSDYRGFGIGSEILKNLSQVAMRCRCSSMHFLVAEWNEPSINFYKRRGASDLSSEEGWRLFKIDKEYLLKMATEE

Regarding `CC(=O)NCC(=O)O.CC(=O)NCC(=O)O.N=C(N)c1ccc(N=NNc2ccc(C(=N)N)cc2)cc1` [Berenil, diminazene aceturate], the SAT1 activity entry at SAT1 is given as “reduces”. Further, in test [1], the “overall α-synuclein pathology / PD phenotype” value is on record as “worsened”; the “neuronal accumulation of α-synuclein in the basal ganglia (mean α-synuclein cell pixel intensity, caudo-putamen)” value is on record as “increased”; the “dendritic complexity in the basal ganglia as detected by MAP2 (% of neuropil covered by MAP2 immunoreactive dendrites)” value was “worsened; also recorded: decrease”; the “tyrosine hydroxylase (TH) fibers (TH corrected optical density in the caudo-putamen)” value is “worsened; also recorded: decreased”. In addition, the “mean α-synuclein cell pixel intensity in the substantia nigra” value in test [1] is reported as “increased”.

`CCNCCCNCCCNCCCNCC` [DENSPM, N1, N11-diethylnorspermine]: the SAT1 activity entry on SAT1 is “increases”. In test [1], the “overall α-synuclein pathology / PD phenotype” value is given as “partially rescued; also recorded: partially improved”; the “neuronal accumulation of α-synuclein in the basal ganglia (mean α-synuclein cell pixel intensity, caudo-putamen)” value was “decreased”; the “dendritic complexity in the basal ganglia as detected by MAP2 (% of neuropil covered by MAP2 immunoreactive dendrites)” value is “ameliorated; also recorded: rescued”; the “tyrosine hydroxylase (TH) fibers (TH corrected optical density in the caudo-putamen)” value was “partially rescued; also recorded: increased”. In test [1], the “mean α-synuclein cell pixel intensity in the substantia nigra” value is listed as “trending decrease”.

Regarding `NCCCNCCCCNCCCN` [Spermine, spermine], the “toxicity of exogenous spermine (growth curves, OD600)” value in test [2] was “more toxic”. On α-synuclein, the “aggregation of α-synuclein” value was “accelerate”.
